Legend:
sugar beet = test: Test B pre/postemergence sugar beet; assay type: in vivo, Beta vulgaris
How it was run: (§1)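 Herbicidal effect was estimated by eye on a ten-point control scale after plants spent twelve to sixteen days in a greenhouse following soil or foliar treatment. Foliar sprays targeted plants at one to four leaves; all doses were formulated in a non-phytotoxic solvent with surfactant.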

giant foxtail = test: Test B pre/postemergence giant foxtail; assay type: in vivo, Setaria faberii
How it was run: as §1

crabgrass = test: Test B pre/postemergence crabgrass; assay type: in vivo, Digitaria sanguinalis
How it was run: as §1

soybean = test: Test B pre/postemergence soybean; assay type: in vivo, Glycine max
How it was run: as §1

[1] = Postemergence, Rate 62 g/ha, scale 0 to 10, 0 is no effect, 10 is complete control
[2] = Postemergence, Rate 125 g/ha, scale of 0 to 10 where 0 is no effect and 10 is complete control
[3] = Postemergence, Rate 250 g/ha, scale of 0 to 10, 0 is no effect, 10 is complete control
[4] = Postemergence, Rate 500 g/ha, scale of 0 to 10 where 0 is no effect and 10 is complete control
[5] = Preemergence, Rate 62 g/ha, scale 0 to 10 (0 no effect, 10 complete control)
[6] = Preemergence, Rate 125 g/ha, scale of 0 to 10 where 0 is no effect and 10 is complete control
[7] = Preemergence, Rate 500 g/ha, scale of 0 to 10 where 0 is no effect and 10 is complete control
[8] = Preemergence, Rate 62 g/ha, scale of 0 to 10 where 0 is no effect and 10 is complete control
[9] = Preemergence, Rate 250 g/ha, scale 0 to 10 (0 no effect, 10 complete control)
[10] = Postemergence, Rate 1000 g/ha, scale 0 to 10 (0 no effect, 10 complete control)
[11] = Rate 500 g/ha, Postemergence, scale 0 to 10, 0 is no effect, 10 is complete control
[12] = Rate 1000 g/ha, Preemergence, scale 0 to 10 (0 no effect, 10 complete control)

Structure (SMILES)	Plant response rating, Sugarbeets (sugar beet; [1])	Sugarbeets plant response rating (sugar beet; [3])	Sugarbeets plant response rating (sugar beet; [6])	Plant response rating, Sugarbeets (sugar beet; [7])	Plant response rating, Giant foxtail (giant foxtail; [1])	Giant foxtail plant response rating (giant foxtail; [3])	Plant response rating, Giant foxtail (giant foxtail; [4])	Giant foxtail plant response rating (giant foxtail; [6])	Plant response rating, Giant foxtail (giant foxtail; [7])	Plant response rating, Crabgrass (crabgrass; [1])	Crabgrass plant response rating (crabgrass; [3])	Crabgrass plant response rating (crabgrass; [6])	Plant response rating, Crabgrass (crabgrass; [7])	Plant response rating, Soybean (soybean; [1])	Soybean plant response rating (soybean; [6])	Plant response rating, Soybean (soybean; [7])	Plant response rating, Sugarbeets (sugar beet; [9])	Plant response rating, Giant foxtail (giant foxtail; [9])	Plant response rating, Crabgrass (crabgrass; [9])	Plant response rating, Soybean (soybean; [9])	also measured
C#CC(C)n1c(=O)on(C(=O)N(c2ccccc2)C(C)C)c1=O (stereo not shown) [Compound 609]	0	0	3	8	6	9	9	10	10	5	9	7	9	5	6	7	–	–	–	–	Plant response rating, Sugarbeets (sugar beet; [2]): 0; Plant response rating, Sugarbeets (sugar beet; [4]): 1; Sugarbeets plant response rating (sugar beet; [5]): 0; Plant response rating, Giant foxtail (giant foxtail; [2]): 9; Giant foxtail plant response rating (giant foxtail; [5]): 10; Plant response rating, Crabgrass (crabgrass; [2]): 9; Crabgrass plant response rating (crabgrass; [5]): 7; Plant response rating, Soybean (soybean; [2]): 6; Plant response rating, Soybean (soybean; [4]): 7; Soybean plant response rating (soybean; [5]): 4
CC(C)N(C(=O)n1oc(=O)n(CCC(=O)N(C)C)c1=O)c1ccc(F)cc1 [Compound 638]	0	0	6	10	5	8	8	10	10	2	8	9	10	1	0	3	6	10	9	3	Plant response rating, Sugarbeets (sugar beet; [2]): 0; Sugarbeets plant response rating (sugar beet; [8]): 0; Plant response rating, Giant foxtail (giant foxtail; [2]): 6; Giant foxtail plant response rating (giant foxtail; [8]): 10; Plant response rating, Crabgrass (crabgrass; [2]): 5; Plant response rating, Crabgrass (crabgrass; [4]): 9; Crabgrass plant response rating (crabgrass; [8]): 9; Plant response rating, Soybean (soybean; [2]): 1; Soybean plant response rating (soybean; [3]): 3; Soybean plant response rating (soybean; [8]): 0
CC(C)N(C(=O)n1oc(=O)n(CC(=O)C2CCC2)c1=O)c1ccc(F)cc1F [Compound 642]	0	0	0	4	0	4	7	10	10	0	0	8	10	2	0	0	0	10	10	0	Sugarbeets plant response rating (sugar beet; [2]): 0; Sugarbeets plant response rating (sugar beet; [8]): 0; Giant foxtail plant response rating (giant foxtail; [2]): 0; Giant foxtail plant response rating (giant foxtail; [8]): 8; Crabgrass plant response rating (crabgrass; [2]): 0; Plant response rating, Crabgrass (crabgrass; [4]): 5; Crabgrass plant response rating (crabgrass; [8]): 6; Soybean plant response rating (soybean; [2]): 2; Soybean plant response rating (soybean; [3]): 2; Soybean plant response rating (soybean; [8]): 0
COP(=O)(CCn1c(=O)on(C(=O)N(c2ccc(F)cc2)C(C)C)c1=O)OC [Compound 662]	–	–	0	0	–	2	–	7	10	–	0	0	6	–	0	0	0	9	4	0	Sugarbeets plant response rating (sugar beet; [2]): 0; Sugarbeets plant response rating (sugar beet; [10]): 0; Sugarbeets plant response rating (sugar beet; [11]): 0; Plant response rating, Sugarbeets (sugar beet; [12]): 0; Giant foxtail plant response rating (giant foxtail; [2]): 0; Giant foxtail plant response rating (giant foxtail; [10]): 8; Giant foxtail plant response rating (giant foxtail; [11]): 5; Plant response rating, Giant foxtail (giant foxtail; [12]): 10; Crabgrass plant response rating (crabgrass; [2]): 0; Crabgrass plant response rating (crabgrass; [10]): 8; Crabgrass plant response rating (crabgrass; [11]): 2; Plant response rating, Crabgrass (crabgrass; [12]): 9; Soybean plant response rating (soybean; [2]): 1; Soybean plant response rating (soybean; [11]): 2; Plant response rating, Soybean (soybean; [12]): 3
